# Like-named read-outs stand apart in the source and are kept apart here.
# How the values were obtained:
# [1] = tested on: HT29 cells; conditions: cited from earlier work
# [2] = tested on: SH-SY5Y; experiment: MTT viability assay, neuroblastoma SH-SY5Y cells; assay type: cell-based, human; conditions: SHSY5Y, 24 h
# Excerpt: (§1) Cell lines of different origins were used in the study and grouped as follows: prostate panel (human prostate carcinomas: DU145, derived from metastatic site: brain; grade IV PC3, derived from metastatic site: bone; LNCaP, derived from the metastatic site: lymph node; prostate epithelial, PNT2), colon panel (colorectal adenocarcinomas: HT29, originating from a primary tumor; Duke’s type C DLD-1, with the potential to lymph node metastasis; highly metastatic HCT116; colon epithelial cells CCD 841 CoN), thyroid panel (follicular thyroid carcinoma FTC133, anaplastic thyroid carcinoma 8505C, papillary thyroid carcinoma TPC-1, normal thyroid follicular epithelial Nthy-ori 3–1), breast panel (ER-positive breast adenocarcinoma MCF7, ER-negative breast adenocarcinoma MDA-MB-231, breast epithelial MCF10A), brain panel (neuroblastoma SH-SY5Y, glioblastoma U-87 MG, murine astrocytes C8D1A). All cell lines were purchased from Merck (Darmstadt, Germany).
# (§2) Cells were grown under standard conditions (37 °C, 5% CO2) and culture media (DMEM/F12 for PNT2, PC3, FTC133, 8505 C, MDA-MB-231, TPC-1; DMEM Low Glucose for DU145; DMEM High Glucose for HCT116, DLD-1, SH-SY5Y, U87MG, C8D1A; MEM with NEAA for MCF7; MEM for CCD 841 CoN; McCoy’s for HT29; RPMI1640 with sodium pyruvate for LNCaP; DMEM/F12 with 20 ng/mL epidermal growth factor (EGF), 10 μg/mL insulin, 0.5 μg/mL hydrocortisone, 100 ng/mL cholera toxin) for MCF10A), supplemented with 10% fetal bovine serum (FBS) or 5% donor horse serum for MCF10A, and 1% antibiotics solution (10,000 U penicillin and 10 mg streptomycin/mL). The tested substances were prepared as 10 mg/mL stock solutions in DMSO and further diluted in the culture media to the working concentrations. Cells were treated with UA enantiomers at the concentration range of 0–50 µg/mL. The influence of DMSO on cell viability was also examined, with the final concentration […], and no toxic effect was noted.
# (§3) The cells were seeded onto 96-well plates at a density of 1.5 × 10^4 cells/well. After 24 h UA enantiomers were added. Cell viability was determined after 24, 48, and 72 h by the MTT assay, as described previously. Doxorubicin was used as a reference cytostatic drug. All analyses were performed in triplicate; cell viability was expressed as % of control, untreated cells (mean ± SD), and IC50 values (concentration at which cell viability is inhibited by 50%), if possible.
# [3] = tested on: MCF10A; experiment: MTT viability assay, normal breast epithelial cells; assay type: cell-based, human; conditions: for IC50: Homo sapiens, MCF-10A, MCF10A normal cells; for Cell viability: MCF10A, 24 h
# Excerpt: as §1, §2, §3
# [4] = tested on: LNCaP; experiment: MTT viability assay, LNCaP prostate cancer cells; assay type: cell-based, human; conditions: for Cell viability: 24 h; for IC50: Homo sapiens
# Excerpt: as §1, §2, §3
# [5] = tested on: C8D1A; experiment: MTT viability assay, normal astrocytes C8D1A; assay type: cell-based, murine; conditions: C8D1A, 24 h
# Excerpt: as §1, §2, §3
# [6] = tested on: HT29; experiment: MTT viability assay, HT29 colon cancer cells; assay type: cell-based, human; conditions: for Cell viability: HT29, 24 h; for IC50: Homo sapiens, HT-29
# Excerpt: as §1, §2, §3
# [7] = tested on: U87MG; experiment: MTT viability assay, glioblastoma U87MG cells; assay type: cell-based, human; conditions: 24 h
# Excerpt: as §1, §2, §3
# [8] = tested on: PC3; experiment: MTT viability assay, PC3 prostate cancer cells; assay type: cell-based, human; conditions: for IC50: Homo sapiens, PC-3; for Cell viability: PC3, 24 h
# Excerpt: as §1, §2, §3
# (§4) The selectivity index (SI) was calculated, if possible, by dividing the IC50 value obtained for non-cancerous cells line by the IC50 values obtained for appropriate cancer cell line, as described previously. […] The values above 3 indicate good selectivity.
# [9] = tested on: HCT116; experiment: MTT viability assay, HCT116 colon cancer cells; assay type: cell-based, human; conditions: for Cell viability: HCT116, 24 h; for IC50: Homo sapiens, HCT-116
# Excerpt: as §1, §2, §3
# [10] = tested on: MDA-MB-231; experiment: MTT viability assay, MDA-MB-231 breast cancer cells; assay type: cell-based, human; conditions: for IC50: Homo sapiens; for Cell viability: MDA-MB-231, 24 h
# Excerpt: as §1, §2, §3, §4
smiles,measurement,setting,value
"CC(=O)C1=C(O)C=C2Oc3c(C(C)=O)c(O)c(C)c(O)c3[C@@]2(C)C1=O [UA(+), (+)-usnic acid]",IC50,"[1]; HT29, recalculated from µM by the authors, ref 21",24.1 µg/mL
same,IC50,"[1]; HT29, recalculated from µM by the authors, ref 22",34.3 µg/mL
same,IC50,"[1]; HT29, ref 21, read-out: IC50",70 µM
same,IC50,"[1]; HT29, ref 22, read-out: IC50",99.7 µM
same,Cell viability,[2]; 2.5 µg/mL,99.49 % of control
same,Cell viability,[2]; 5 µg/mL,97.56 % of control
same,Cell viability,[2]; 10 µg/mL,97.95 % of control
same,Cell viability,[2]; 20 µg/mL,96.15 % of control
same,Cell viability,[2]; 30 µg/mL,95.77 % of control
same,Cell viability,[2]; 40 µg/mL,92.95 % of control
same,Cell viability,[2]; 50 µg/mL,96.54 % of control
same,IC50,[3]; 48 h,> 50 µg/mL
same,IC50,[3]; 72 h,44.8 µg/mL
same,Cell viability,[3]; 2.5 µg/mL,95.69 % of control
same,Cell viability,[3]; 5 µg/mL,98.53 % of control
same,Cell viability,[3]; 10 µg/mL,94.31 % of control
same,Cell viability,[3]; 20 µg/mL,97.06 % of control
same,Cell viability,[3]; 30 µg/mL,97.25 % of control
same,Cell viability,[3]; 40 µg/mL,97.35 % of control
same,Cell viability,[3]; 50 µg/mL,94.02 % of control
same,Cell viability,[4]; 2.5 µg/mL,87.68 % of control
same,Cell viability,[4]; 5 µg/mL,81.45 % of control
same,Cell viability,[4]; 10 µg/mL,79.71 % of control
same,Cell viability,[4]; 20 µg/mL,75.51 % of control
same,Cell viability,[4]; 30 µg/mL,71.45 % of control
same,Cell viability,[4]; 40 µg/mL,69.13 % of control
same,Cell viability,[4]; 50 µg/mL,69.71 % of control
same,IC50,[4]; 48 h,> 50 µg/mL
same,IC50,[4]; 72 h,> 50 µg/mL
same,Cell viability,[5]; 2.5 µg/mL,110.33 % of control
same,Cell viability,[5]; 5 µg/mL,110.17 % of control
same,Cell viability,[5]; 10 µg/mL,96.58 % of control
same,Cell viability,[5]; 20 µg/mL,91.17 % of control
same,Cell viability,[5]; 30 µg/mL,88.67 % of control
same,Cell viability,[5]; 40 µg/mL,86.17 % of control
same,Cell viability,[5]; 50 µg/mL,106.42 % of control
same,Cell viability,[6]; 2.5 µg/mL,103.23 % of control
same,Cell viability,[6]; 5 µg/mL,91.51 % of control
same,Cell viability,[6]; 10 µg/mL,88.42 % of control
same,Cell viability,[6]; 20 µg/mL,84.70 % of control
same,Cell viability,[6]; 30 µg/mL,77.54 % of control
same,Cell viability,[6]; 40 µg/mL,74.11 % of control
same,Cell viability,[6]; 50 µg/mL,72.56 % of control
same,IC50,"[6]; HT29, 48 h",> 50 µg/mL
same,IC50,"[6]; HT29, 72 h",> 50 µg/mL
same,Cell viability,[7]; 5 µg/mL,99.21 % of control
same,Cell viability,[7]; 10 µg/mL,98.61 % of control
same,Cell viability,[7]; 30 µg/mL,101.76 % of control
same,Cell viability,[7]; 40 µg/mL,92.73 % of control
same,Cell viability,[7]; 50 µg/mL,95.00 % of control
same,IC50,"[8]; PC3, 48 h",39.6 µg/mL
same,IC50,"[8]; PC3, 72 h",19.1 µg/mL
same,selectivity index (SI),"[8]; IC50 PNT2 / IC50 PC3, 48 h",0.94
same,selectivity index (SI),"[8]; IC50 PNT2 / IC50 PC3, 72 h",1.07
same,Cell viability,[8]; 2.5 µg/mL,100.80 % of control
same,Cell viability,[8]; 5 µg/mL,99.30 % of control
same,Cell viability,[8]; 10 µg/mL,104.63 % of control
same,Cell viability,[8]; 20 µg/mL,96.62 % of control
same,Cell viability,[8]; 30 µg/mL,83.08 % of control
same,Cell viability,[8]; 40 µg/mL,70.10 % of control
same,Cell viability,[8]; 50 µg/mL,64.83 % of control
same,Cell viability,[9]; 2.5 µg/mL,100.35 % of control
same,Cell viability,[9]; 5 µg/mL,103.97 % of control
same,Cell viability,[9]; 10 µg/mL,85.60 % of control
same,Cell viability,[9]; 20 µg/mL,71.99 % of control
same,Cell viability,[9]; 30 µg/mL,68.16 % of control
same,Cell viability,[9]; 40 µg/mL,67.02 % of control
same,Cell viability,[9]; 50 µg/mL,61.49 % of control
same,IC50,"[9]; HCT116, 48 h",26.4 µg/mL
same,IC50,"[9]; HCT116, 72 h",10.5 µg/mL
same,IC50,"[10]; MDA-MB-231, 48 h",> 50 µg/mL
same,IC50,"[10]; MDA-MB-231, 72 h",15.8 µg/mL
same,selectivity index (SI),"[10]; IC50 MCF10A / IC50 MDA-MB-231, 72 h",2.83
same,Cell viability,[10]; 2.5 µg/mL,100.36 % of control
same,Cell viability,[10]; 5 µg/mL,95.55 % of control
same,Cell viability,[10]; 10 µg/mL,87.62 % of control
same,Cell viability,[10]; 20 µg/mL,81.99 % of control
same,Cell viability,[10]; 30 µg/mL,77.62 % of control
same,Cell viability,[10]; 40 µg/mL,67.93 % of control
same,Cell viability,[10]; 50 µg/mL,69.24 % of control
